Measurements: patent US8637558B2 (Industry-Academic Cooperation Foundation, Chosun University, priority 2008, dated 2014)

biological target: 15-PGDH (Homo sapiens (Human), UniProt P15428); test: Assay for the activities of 15-PGDH inhibitors (formation of NADH at 340 nm); format: biochemical; conditions: purified 15-PGDH enzyme, 21 μM PGE2, 0.25 mM NAD+, pH 7.5; concentration inhibiting 50% of 15-PGDH activity
Description: <1-1> Expression and Purification of 15-PGDH
A 15-PGDH cDNA plasmid containing BamHI and EcoRI sites of the pGES-2T expression vector was used to transform Escherichia coli BL-21 lysS in accordance with the ordinarily used in the art. The transformed cells were grown in 500 mL LB medium containing 50 μg/mL ampicillin at 37° C. while being stirred at 220 rpm until the OD600 reached 0.6. Isopropyl β-D-thiogalactoside (1 mM) was added and the cells were allowed to grow for 12 hours at 25° C. Then, the pellets were harvested by centrifugation at 4000×g for 30 minutes at 4° C. The cell pallets were resuspended in 20 mL cell lysis buffer (1×PBS buffer (pH 7.4) containing 1 mM EDTA and 0.1 mM DTT) and sonicated (14×10 s at 4° C.). The disrupted cells were centrifuged at 4000×g for 20 minutes at 4° C. The supernatant was loaded slowly on a glutathione-sepharose 4B column, which was equilibrated at 4° C. with a cell lysis buffer (1×PBS buffer (pH 7.4) containing 1 mM EDTA and 0.1 mM DTT). The column was washed with the lysis buffer until OD280 reached below 0.005. Then, 15-PGDH was eluted from the glutathione-sepharose 4B column at room temperature for 5 minutes by using the elution buffer (50 mM Tris-HCl (pH 8.0) containing 10 mM reduced glutathione, 1 mM EDTA and 0.1 mM DTT). The concentration and the purity of the purified enzyme were determined by SDS-PAGE.
<1-2> Assay for the Activities of 15-PGDH Inhibitors
The absorbance of the reaction mixture was recorded at 340 nm so that the activities of the derivatives according to the present invention as 15-PGDH inhibitors were determined from a standard curve prepared from the absorbance of various concentrations of NADH at 340 nm.

Chain of 15-PGDH (P15428 whole entry): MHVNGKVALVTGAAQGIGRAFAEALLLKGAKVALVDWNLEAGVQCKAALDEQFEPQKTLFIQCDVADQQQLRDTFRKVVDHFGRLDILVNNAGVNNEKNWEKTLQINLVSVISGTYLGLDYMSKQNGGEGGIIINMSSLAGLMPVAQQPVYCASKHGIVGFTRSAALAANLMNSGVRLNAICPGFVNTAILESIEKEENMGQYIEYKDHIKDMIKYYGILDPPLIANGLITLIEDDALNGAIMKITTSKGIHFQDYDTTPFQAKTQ

Row | Compound | IC50
1 | O=C1NC(=O)/C(=C/c2ccc(OCC3CCCCC3)c(Cl)c2)S1 [Derivative 31, 5-(3-chloro-4-(cyclohexylmethoxy)benzylidene)thiazolidine-2,4-dione] | 26.9 nM
2 | O=C1NC(=O)/C(=C/c2ccc(OCCC3CCCCC3)cc2C(F)(F)F)S1 [Derivative 81, 5-(4-(2-cyclohexylethoxy)-2-(trifluoromethyl)benzylidene)thiazolidine-2,4-dione] | 136 nM
3 | COc1ccc(/C=C2\SC(=O)NC2=O)c(Cl)c1OCCC1CCCCC1 [Derivative 80, 5-(2-chloro-3-(2-cyclohexylethoxy)-4-methoxybenzylidene) thiazolidine-2,4-dione] | 110 nM
4 | O=C1NC(=O)/C(=C/c2cccc(OCCCCC3CCCCC3)c2Cl)S1 [Derivative 100, 5-(2-chloro-3-(cyclohexylbutoxy)benzylidene)thiazolidine-2,4-dione] | 94.5 nM
5 | CC1CCC(COc2ccc(/C=C3\SC(=O)NC3=O)cc2)CC1 (centres unmarked) [Derivative 37, 5-(4-((4-methylcyclohexyl)methoxy)benzylidene)thiazolidine-2,4-dione] | 66.4 nM
6 | CCOc1cc(/C=C2\SC(=O)NC2=O)ccc1OCCC1CCCCC1 [Derivative 59, 5-(4-(2-cyclohexylethoxy)-3-ethoxybenzylidene)thiazolidine-2,4-dione] | 259 nM
7 | O=C1NC(=O)/C(=C/c2ccc(OCCCC3CCCCC3)cc2Cl)S1 [Derivative 97, 5-(2-chloro-4-(3-cyclohexylpropoxy)benzylidene)thiazolidine-2,4-dione] | 284 nM
8 | Cc1cc(CC2SC(=O)NC2=O)ccc1OCCC1CCCCC1 (centres unmarked) [Derivative 121, 5-(4-(2-cyclohexylethoxy)-3-methylbenzyl)thiazolidine-2,4-dione] | 397 nM
9 | CC1(COc2ccc(/C=C3\SC(=O)NC3=O)cc2)CCCCC1 [Derivative 43, 5-(4-((1-methylcyclohexyl)methoxy)benzylidene)thiazolidine-2,4-dione] | 547 nM
10 | O=C1NC(=O)C(Cc2ccc(OCCC3CCCC3)cc2)S1 (centres unmarked) [Derivative 118, 5-(4-(2-cyclopentylethoxy)benzyl)thiazolidine-2,4-dione] | 2210 nM
11 | Cc1ncsc1CCOc1ccc(/C=C2\SC(=O)NC2=O)cc1 [Derivative 19, 5-(4-(2-(4-methylthiazol-5-yl)ethoxy)benzylidene)thiazolidine-2,4-dione] | 1170 nM
12 | O=C1NC(=O)/C(=C/c2ccc(OCCN3CCOCC3)cc2)S1 [Derivative 2, 5-(4-(2-morpholinoethoxy)benzylidene)thiazolidine-2,4-dione] | 515 nM
13 | O=C1NC(=O)/C(=C/c2ccc(OCc3cccs3)cc2)S1 [Derivative 22, 5-(4-(thiophen-2-ylmethoxy)benzylidene)thiazolidine-2,4-dione] | 251 nM
14 | CC(C)OCCOc1ccc(/C=C2\SC(=O)NC2=O)cc1 [Derivative 1, 5-(4-(2-isopropoxyethoxy)benzylidene)thiazolidine-2,4-dione] | 961 nM
15 | O=C1NC(=O)/C(=C/c2ccc(OCc3ccsc3)cc2)S1 [Derivative 23, 5-(4-(thiophen-3-ylmethoxy)benzylidene)thiazolidine-2,4-dione] | 392 nM
16 | COc1cc(/C=C2\SC(=O)NC2=O)ccc1OCCC1CCCCC1 [Derivative 8, 5-(4-(2-cyclohexylethoxy)-3-methoxybenzylidene)thiazolidine-2,4-dione] | 23 nM
17 | O=C1NC(=O)/C(=C/c2ccc(OCCN3CCS(=O)(=O)CC3)cc2)S1 [Derivative 5, 5-[4-(2-thiomorpholine-1,1-dioxideethoxy)benzylidene]thiazolidine-2,4-dione] | 1370 nM
18 | O=C1NC(=O)/C(=C/c2cccc(OCC3CCCCC3)c2Cl)S1 [Derivative 63, 5-(2-chloro-3-(cyclohexylmethoxy)benzylidene)thiazolidine-2,4-dione] | 57.6 nM
19 | O=C1NC(=O)/C(=C/c2ccc(OCc3ccccc3)cc2Cl)S1 [Derivative 85, 5-(4-(benzyloxy)-2-chlorobenzylidene)thiazolidine-2,4-dione] | 487 nM
20 | O=C1NC(=O)/C(=C/c2ccc(OCCCc3ccccc3)cc2Cl)S1 [Derivative 87, 5-(2-chloro-4-phenylpropoxybenzylidene)thiazolidine-2,4-dione] | 52 nM
21 | COc1ccc(/C=C2\SC(=O)NC2=O)cc1 [Derivative 40, 5-(4-methoxybenzylidene)thiazolidine-2,4-dione] | 5670 nM
22 | O=C1NC(=O)/C(=C/c2cc(OCCC3CCCCC3)ccc2[N+](=O)[O-])S1 [Derivative 83, 5-(5-(2-cyclohexylethoxy)-2-nitrobenzylidene)thiazolidine-2,4-dione] | 6280 nM
23 | O=C1NC(=O)C(Cc2ccc(OCC3CCCCC3)c(Cl)c2)S1 (centres unmarked) | 526 nM
24 | O=C1NC(=O)/C(=C/c2ccc(OCCN3CCCCC3)cc2)S1 [Derivative 14, 5-(4-(2-(piperidin-1-yl)ethoxy)benzylidene)thiazolidine-2,4-dione] | 1430 nM
25 | O=C1NC(=O)C(Cc2ccc(OCCN3CCS(=O)(=O)CC3)cc2)S1 (centres unmarked) [Derivative 119, 5-(4-(2-thiomorpholine-1,1-dioxideethoxy)benzyl)-2,4-thiazolidinedione] | 5210 nM
26 | O=C1NC(=O)/C(=C/c2ccc(OCC3COc4ccccc4O3)cc2)S1 (centres unmarked) [Derivative 62, 5-(4-((2,3-Dihydrobenzo[b][1,4]dioxin-2-yl)methoxy)benzylidene) thiazolidine-2,4-dione] | 172 nM
27 | Cc1cc(/C=C2\SC(=O)NC2=O)ccc1OCCC1CCCCC1 [Derivative 9, 5-(4-(2-cyclohexylethoxy)-3-methylbenzylidene)thiazolidine-2,4-dione] | 55 nM
28 | O=C1NC(=O)/C(=C/c2ccc(OCc3ccc(CCl)cc3)cc2)S1 [Derivative 36, 5-(4-(4-(chloromethyl)benzyloxy)benzylidene)thiazolidine-2,4-dione] | 124 nM
29 | O=C1NC(=O)/C(=C/c2cccc(OCCc3ccccn3)c2Cl)S1 [Derivative 93] | 10300 nM
